Experimental data as given in patent US20240400620A1, “Compositions Containing Coronavirus Proteins and Epitopes” (priority 2021, published 2024).

System: activated CD4+ T cells from MA10-infected HLA-DRB1*0101 Ifnar1^−/− mice
Format: cell-based

Sequence | expansion of multifunctional IFNγ+/TNF+ CD4+ T cells | frequency of IFNγ-producing activated CD4+ T cells compared with unstimulated control cells
VLSFELLHAPATVCG [S512-526] | capable of expanding | 
RWYFYYLGTGPEAGL (misc_feature - Nucleoprotein; Severe acute respiratory syndrome-related coronavirus) [N107-121] |  | increase was significant
LNTLVKQLSSNFGAI [S959-973] |  | increase was significant
GTWLTYTGAIKLDDK (misc_feature - Nucleoprotein; Severe acute respiratory syndrome-related coronavirus) [N328-342] | capable of expanding | 
TSNFRVQPTESIVRF [S315-329] | capable of expanding | 
